Experiment: Half life in CD1 mouse brain at 30 mg/kg, ip by LC-MS/MS analysis
Format: ADME, organism-based

half-life: 46 min
Compound: O=C(CCc1ccc2c(c1)[nH]c1ccncc12)NCCOCCOCCNc1cccc2c1C(=O)N(C1CCC(=O)NC1=O)C2=O (stereo unspecified)
